Test results: ChEMBL document CHEMBL5608197, “Optimization of pyrazolopyridine 4-carboxamides with potent antimalarial activity for which resistance is associated with the P. falciparum transporter ABCI3” (Eur J Med Chem, 2024)
Converted amounts (≈) assume the structure as drawn.

Tests used:
[1] = Intrinsic clearance in rat hepatocytes at 1 uM measured per million cells for 90 mins by LC-MS/MS analysis; type: ADME, cell-based, Hepatocyte; settings: read-out: CLH
[2] = Aqueous solubility of the compound in PBS buffer at pH 7.4 at 200 uM incubated for 2 hrs under shaking condition by miniaturized shake flask method; type: physicochemical
[3] = Lipophilicity, elogD of the compound in 1-Octanol/PBS at pH 7.4 at 7.5 uM incubated for 2 hrs by miniaturized shake flask method; type: physicochemical
[4] = Intrinsic clearance in human liver microsomes at 1 uM measured for 60 mins by LC-MS/MS analysis; type: ADME, Microsome; settings: read-out: CLH
[5] = biological target: T1, CYP1A2 (Homo sapiens, UniProt P05177); assay: Inhibition of CYP1A2 (unknown origin) at 1 uM relative to control; type: ADME
T1 sequence (P05177 whole entry): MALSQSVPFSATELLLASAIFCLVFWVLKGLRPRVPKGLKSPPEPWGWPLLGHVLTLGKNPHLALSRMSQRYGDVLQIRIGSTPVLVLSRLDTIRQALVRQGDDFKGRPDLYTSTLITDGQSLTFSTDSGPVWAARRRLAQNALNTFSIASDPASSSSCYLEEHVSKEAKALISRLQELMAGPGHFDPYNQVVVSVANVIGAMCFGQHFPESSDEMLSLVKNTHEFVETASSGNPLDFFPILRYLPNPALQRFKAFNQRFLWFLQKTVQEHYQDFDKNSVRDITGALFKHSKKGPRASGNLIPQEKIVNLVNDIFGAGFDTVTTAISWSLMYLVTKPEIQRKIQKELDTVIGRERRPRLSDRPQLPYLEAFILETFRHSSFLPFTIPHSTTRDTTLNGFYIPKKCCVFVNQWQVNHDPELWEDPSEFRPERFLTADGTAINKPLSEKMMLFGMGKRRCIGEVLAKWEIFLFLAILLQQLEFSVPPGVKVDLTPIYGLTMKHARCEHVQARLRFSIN

[6] = biological target: CYP2C19 (Homo sapiens, UniProt P33261); assay: Inhibition of CYP2C19 (unknown origin) at 10 uM relative to control; type: ADME
Sequence of CYP2C19 (P33261 whole entry): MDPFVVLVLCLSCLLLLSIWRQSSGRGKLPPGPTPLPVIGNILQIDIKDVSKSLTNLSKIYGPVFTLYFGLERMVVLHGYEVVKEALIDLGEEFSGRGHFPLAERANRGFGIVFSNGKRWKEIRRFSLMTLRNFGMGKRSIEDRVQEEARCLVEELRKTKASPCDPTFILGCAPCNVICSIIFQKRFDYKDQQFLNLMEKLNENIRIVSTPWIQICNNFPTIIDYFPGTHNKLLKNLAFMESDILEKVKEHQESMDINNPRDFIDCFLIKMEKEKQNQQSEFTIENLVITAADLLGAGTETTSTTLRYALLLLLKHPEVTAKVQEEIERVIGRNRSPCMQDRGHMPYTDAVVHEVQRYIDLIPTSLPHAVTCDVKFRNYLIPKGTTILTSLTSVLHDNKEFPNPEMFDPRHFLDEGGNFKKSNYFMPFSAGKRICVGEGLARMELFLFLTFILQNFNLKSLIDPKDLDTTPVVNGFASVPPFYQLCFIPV

[7] = biological target: T2, CYP2C9 (Homo sapiens, UniProt P11712); assay: Inhibition of CYP2C9 (unknown origin) at 1 uM relative to control; type: ADME
T2 sequence (P11712 whole entry): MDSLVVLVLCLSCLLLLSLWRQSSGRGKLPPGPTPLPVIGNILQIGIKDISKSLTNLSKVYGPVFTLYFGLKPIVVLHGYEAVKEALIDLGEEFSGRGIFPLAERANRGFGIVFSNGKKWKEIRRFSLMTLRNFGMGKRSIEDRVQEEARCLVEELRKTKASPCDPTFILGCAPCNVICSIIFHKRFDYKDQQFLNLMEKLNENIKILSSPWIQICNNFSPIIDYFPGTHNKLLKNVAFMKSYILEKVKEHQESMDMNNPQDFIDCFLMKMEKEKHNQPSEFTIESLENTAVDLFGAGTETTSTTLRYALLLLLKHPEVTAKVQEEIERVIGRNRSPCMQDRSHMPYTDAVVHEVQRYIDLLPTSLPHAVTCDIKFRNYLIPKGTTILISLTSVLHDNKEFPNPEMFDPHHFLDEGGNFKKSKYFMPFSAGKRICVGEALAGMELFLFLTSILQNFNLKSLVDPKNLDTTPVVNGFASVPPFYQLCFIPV

[8] = biological target: T2, CYP2C9; assay: Inhibition of CYP2C9 (unknown origin) at 10 uM relative to control; type: ADME
[9] = tested on: Plasmodium falciparum; assay: Antiplasmodial activity against Plasmodium falciparum Dd2-B2 assessed as inhibition of parasite growth incubated for 72 hrs by flow cytometry; type: functional, organism-based
[10] = tested on: Plasmodium falciparum; assay: Antiplasmodial activity against drug-resistant Plasmodium falciparum Dd2-B2 in 2x10^7 bulk culture selection assessed as concentration required to complete parasite killing measured on day 2 under initial selection drug pressure concentration of 3XEC50 by Minimum inoculum of resistance analysis; type: functional; settings: time 2 day
[11] = tested on: Plasmodium falciparum; assay: Resistance ratio of EC50 for antiplasmodial activity against drug-resistant recrudescent Plasmodium falciparum Dd2-B2 in 2x10^7 bulk culture selection measured on day 15 under initial selection drug pressure concentration of 3XEC50 to EC50 for antiplasmodial activity against Plasmodium flaciparum Dd2 measured after 72 hrs; type: functional
[12] = tested on: Plasmodium falciparum; assay: Antiplasmodial activity against drug-resistant recrudescent Plasmodium falciparum Dd2-B2 in 2x10^5 bulk culture selection assessed as inhibition of parasite growth incubated for 72 hrs by flow cytometry; type: functional, organism-based
[13] = tested on: Plasmodium falciparum; assay: Antiplasmodial activity against multidrug-resistant Plasmodium falciparum Dd2 harboring DHODH-C276F mutant infected in erythrocytes assessed as inhibition of parasite growth incubated for 72 hrs by [3H]hypoxanthine incorporation based microbeta counting analysis; type: functional, organism-based; settings: Dd2, Erythrocyte
[14] = tested on: Plasmodium falciparum; assay: Antiplasmodial activity against multidrug-resistant Plasmodium falciparum NF54 infected in erythrocytes assessed as inhibition of parasite growth incubated for 72 hrs by [3H]hypoxanthine incorporation based microbeta counting analysis; type: functional, organism-based; settings: NF54, Erythrocyte
[15] = tested on: Plasmodium falciparum; assay: Antiplasmodial activity against multidrug-resistant Plasmodium falciparum TM90-C2B infected in erythrocytes assessed as inhibition of parasite growth incubated for 72 hrs by [3H]hypoxanthine incorporation based microbeta counting analysis; type: functional, organism-based; settings: Erythrocyte
[16] = tested on: Plasmodium falciparum; assay: Antiplasmodial activity against multidrug-resistant Plasmodium falciparum Cam3.1 infected in erythrocytes assessed as inhibition of parasite growth incubated for 72 hrs by [3H]hypoxanthine incorporation based microbeta counting analysis; type: functional, organism-based; settings: Cam3.1, Erythrocyte

Q: Which results are given for `Cc1nn(C(C)(C)C)c2nc(C3CC3)cc(C(=O)N3CCOc4ccncc43)c12`?
A: hepatocyte CLint at 1 µM [1]: 26 µL/min/1e6 cells; solubility thermodynamic at 2 h, 200 µM [2]: 69 µM (≈ 27 µg/mL); logD at 2 h, 7.5 µM [3]: 4.1; microsomal CLint at 1 µM [4]: 116 µL/min/mg; inhibition at 1 µM [5]: 18%; inhibition at 10 µM [6]: 17.4%; inhibition at 1 µM [7]: 12.8%; inhibition at 10 µM [8]: 57.5%; EC50 ([9]; Dd2-B2, 72 h): 6.8 nM; EC90 ([9]; Dd2-B2, time 72 hrs): 12.3 nM; Activity [10]: 28 nM; Ratio EC50 [11]: 5; EC50 ([12]; Dd2-B2, 72 h): 28.3 nM; EC90 ([12]; Dd2-B2, time 72 hrs): 68.3 nM; EC50 [13]: 7 nM; EC50 [14]: 3 nM; EC50 [15]: 7 nM; EC50 [16]: 6 nM
